Read-outs that look alike come from different tables or passages of the source.
Assays:
HTT = test: HiBiT protein abundance assay, HTT (K562 HiBiT knock-in); assay type: cell-based, human; conditions: HiBiT knock-in K562 cells, 24 hours, top dose 10 μM
Method in brief: (§1)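 Endogenously HiBiT-tagged K562 lines were treated for 24 h at 37 °C with 10-point 3-fold dilutions (top 10 μM final, DMSO ≤0.25%). Lytic LgBiT complementation luminescence was normalized between unmodified K562 (PC) and DMSO-treated tagged cells (NC); IC50 was interpolated at 50% from a four-parameter logistic fit.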

Target C [1] = test: HiBiT protein abundance assay, Target C (K562 HiBiT knock-in); assay type: cell-based, human; conditions: HiBiT knock-in K562 cells, 24 hours, top dose 10 μM
Method in brief: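 K562 HiBiT knock-in cells (10000/well) were treated 24 h at 37° C with a 10-point 3-fold dilution series (top 10 μM final, ≤0.25% DMSO). HiBiT luminescence was read after lytic LgBiT detection. Percent response used unmodified K562 and DMSO-treated knock-in controls, and IC50 came from a four-parameter fit at 50% of untreated.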

SMN2 mRNA = test: RT-qPCR splicing assay, SMN2 mRNA; assay type: cell-based, human; conditions: Homo sapiens, canonical junction qPCR panel, Table 4; read-out: SMN2 IC50 (decrease in CJ mRNA levels)
Method in brief: (§2)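 Both isoforms, CJ and AJ, read by qPCR from crude lysates of treated A673 or K562 cells; 24 h, 37 °C, maximum 10 uM. Normalization: housekeeper ΔCt, then DMSO ΔΔCt.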

MYB mRNA = test: RT-qPCR splicing assay, MYB mRNA canonical (CJ) and alternative (AJ) junction; assay type: cell-based, human; conditions: Homo sapiens
Method in brief: as §2

K562 cells = test: Cell Titer Glo 2.0 cell viability (toxicity) assay, K562; conditions: 500 cells/well, 72 hours
HTT mRNA = test: RT-qPCR splicing assay, HTT mRNA canonical (CJ) and alternative (AJ) junction; assay type: cell-based, human; conditions: Homo sapiens
Method in brief: as §2

MYB = test: HiBiT protein abundance assay, MYB (K562 HiBiT knock-in); assay type: cell-based, human; conditions: HiBiT knock-in K562 cells, 24 hours, top dose 10 μM
Method in brief: as §1

Target C [2] = test: RT-qPCR canonical junction panel assay, Target C mRNA; assay type: cell-based; conditions: Table 4, read-out: Target C IC50 (decrease in CJ mRNA levels)
Description: Compounds described herein were used to modulate RNA transcript abundance in cells. The expression of a target mRNA was measured by detecting the formation of an exon-exon junction in the canonical transcript (CJ). A compound mediated exon-inclusion event was detected by observing an increase in formation of a new junction with an alternative exon (AJ). Real-time qPCR assays were used to detect these splicing switches and interrogate the potency of various compounds towards different target genes. A high-throughput real time quantitative PCR (RT-qPCR) assay was developed to measure these two isoforms of the mRNA (CJ and AJ) for exemplary genes, such as HTT, SMN2, and MYB, together with a control housekeeping gene, GAPDH or GUSB or PPIA, used for normalization. Briefly, the A673 or K562 cell line was treated with various compounds described herein (e.g., compounds of Formula (I)). After treatment, the levels of the HTT, MYB, or SMN2 mRNA targets were determined from each sample of cell lysate by cDNA synthesis followed by qPCR.
The data analysis was performed by first determining the ΔCt vs the housekeeper gene. This ΔCt was then normalized against the DMSO control (ΔΔCt) and converted to RQ (relative quantification) using the 2^(−ΔΔCt) equation. The RQ were then converted to a percentage response by arbitrarily setting an assay window of 3.5 and 4.0 ΔCt for HTT-CJ and MYB-CJ respectively and an assay window of 9 and 3 ΔCt for HTT-AJ and MYB-AJ in 96 well format (50,000 K562 cells/well and 15,000 A673 cells per well) and an assay window of 3 and 4 ΔCt for HTT-CJ and MYB-CJ respectively and an assay window of 5 and 3 ΔCt for HTT-AJ and MYB-AJ respectively in 384 well format (8,000 K562 cells/well example). […] The percentage response was then fitted to the 4 parametric logistic equation to evaluate the concentration dependence of compound treatment. The increase in AJ mRNA is reported as AC50 (compound concentration having 50% response in AJ increase) while the decrease in CJ mRNA levels is reported as IC50 (compound concentration having […] in CJ decrease).
Additional studies were carried out for a larger panel of genes using the protocol provided above. The junction between flanking upstream and downstream exons was used to design canonical junction Qpcr assays. At least one of the forward primer, reverse primer or the CY5-labeled 5′ nuclease probe (with 3′ quencher such as ZEN/Iowa Black FQ) was designed to overlap with the exon junction to capture the CJ Mrna transcript. BLAST was used to confirm the specificity of the probeset and parameters suCH As melting temperature, GC content, amplicon size, and primer dimer formation are considered during their design. Data for the decrease in CJ Mrna levels for four exemplary genes (HTT, SMN2, MYB, and Target C) analyzed in this panel are reported as IC50 (compound concentration having […] in CJ decrease).

[3] = MYB alternative junction mRNA, RT-qPCR, read-out: MYB AJ (increase in AJ mRNA, AC50)
[4] = MYB canonical junction mRNA, RT-qPCR, read-out: MYB CJ (decrease in CJ mRNA levels, IC50)
[5] = canonical junction qPCR panel, Table 4, read-out: MYB IC50 (decrease in CJ mRNA levels)
[6] = HTT alternative junction mRNA, RT-qPCR, read-out: HTT AJ (increase in AJ mRNA, AC50)
[7] = HTT canonical junction mRNA, RT-qPCR, read-out: HTT CJ (decrease in CJ mRNA levels, IC50)
[8] = canonical junction qPCR panel, Table 4, read-out: HTT IC50 (decrease in CJ mRNA levels)
[9] = RT-qPCR, MYB alternative junction mRNA increase, read-out: MYB AJ (increase in alternative junction mRNA, AC50)
[10] = RT-qPCR, MYB canonical junction mRNA decrease, read-out: MYB CJ (decrease in canonical junction mRNA, IC50)
[11] = RT-qPCR, HTT alternative junction mRNA increase, read-out: HTT AJ (increase in alternative junction mRNA, AC50)
[12] = RT-qPCR, HTT canonical junction mRNA decrease, read-out: HTT CJ (decrease in canonical junction mRNA, IC50)

## Cc1nc2cc(O)c(-c3ccc4nc(N5CC[C@@H](NC6(C)CC6)C5)ccc4n3)cc2o1 [Compound 258]
HTT
  IC50: 100 to 1000 nM
Target C [1]
  IC50: 100 to 1000 nM
SMN2 mRNA
  IC50: < 100 nM
MYB mRNA; [3]
  AC50: 100 to 1000 nM
MYB mRNA; [4]
  IC50: 100 to 1000 nM
MYB mRNA; [5]
  IC50: 100 to 1000 nM
K562 cells
  Effect of Exemplary Compounds on Cell Viability, K562: C (C represents 1000-9999 nM)
HTT mRNA; [6]
  AC50: < 100 nM
HTT mRNA; [7]
  IC50: < 100 nM
HTT mRNA; [8]
  IC50: < 100 nM
MYB
  IC50: 100 to 1000 nM

## Cc1c(O)c(-c2ccc3nc(N4CC[C@@H](NC5CC5)C4)ccc3n2)cc2cn(C)nc12 [Compound 259]
HTT
  IC50: < 100 nM
Target C [1]
  IC50: < 100 nM
SMN2 mRNA
  IC50: < 100 nM
MYB mRNA; [3]
  AC50: < 100 nM
MYB mRNA; [4]
  IC50: < 100 nM
MYB mRNA; [5]
  IC50: < 100 nM
K562 cells
  Effect of Exemplary Compounds on Cell Viability, K562: B (B represents 100-1000 nM)
HTT mRNA; [6]
  AC50: < 100 nM
HTT mRNA; [7]
  IC50: < 100 nM
HTT mRNA; [8]
  IC50: < 100 nM
MYB
  IC50: < 100 nM

## Cc1c(O)c(-c2ccc3nc(N4CC[C@H](NC5CC5)C4)ccc3n2)cc2cn(C)nc12 [Compound 260]
HTT
  IC50: < 100 nM
Target C [1]
  IC50: < 100 nM
SMN2 mRNA
  IC50: < 100 nM
MYB mRNA; [3]
  AC50: < 100 nM
MYB mRNA; [4]
  IC50: < 100 nM
MYB mRNA; [5]
  IC50: < 100 nM
K562 cells
  Effect of Exemplary Compounds on Cell Viability, K562: B (B represents 100-1000 nM)
HTT mRNA; [6]
  AC50: < 100 nM
HTT mRNA; [7]
  IC50: < 100 nM
HTT mRNA; [8]
  IC50: < 100 nM
MYB
  IC50: < 100 nM

## Cc1c(O)c(-c2nc(C3CCC3)c3cc(N4C[C@@H](C)N[C@@H](C)C4)ccc3n2)cc2cn(C)nc12 [Compound 790, 5-{4-cyclobutyl-6-[(3R,5S)-3,5-dimethylpiperazin-1-yl]quinazolin-2-yl}-2,7-dimethylindazol-6-ol]
MYB mRNA; [9]
  AC50: 1000 to 10000 nM
MYB mRNA; [10]
  IC50: 1000 to 10000 nM
MYB mRNA; [5]
  IC50: 1000 to 10000 nM
K562 cells
  Effect of Exemplary Compounds on Cell Viability, K562: C (C represents 1000-9999 nM)
HTT mRNA; [11]
  AC50: > 10000 nM
HTT mRNA; [12]
  IC50: 1000 to 10000 nM
HTT mRNA; [8]
  IC50: 1000 to 10000 nM
Target C [2]
  IC50: > 10 µM

## C[C@@H]1CN(c2ccc3nc(-c4cc5cn(C)nc5cc4O)nc(C4CCC4)c3c2)C[C@H](C)N1 [Compound 791, 5-{4-cyclobutyl-6-[(3R,5S)-3,5-dimethylpiperazin-1-yl]quinazolin-2-yl}-2-methylindazol-6-ol]
MYB mRNA; [9]
  AC50: 1000 to 10000 nM
MYB mRNA; [10]
  IC50: 1000 to 10000 nM
MYB mRNA; [5]
  IC50: 1000 to 10000 nM
K562 cells
  Effect of Exemplary Compounds on Cell Viability, K562: B (B represents 100-1000 nM)
HTT mRNA; [11]
  AC50: > 10000 nM
HTT mRNA; [12]
  IC50: 1000 to 10000 nM
HTT mRNA; [8]
  IC50: 1000 to 10000 nM
Target C [2]
  IC50: > 10 µM

## Cc1c(O)c(-c2ncc3cc(N4CCNC5(CC5)C4)ccc3n2)cc2cn(C)nc12 [Compound 792, 5-(6-{4,7-diazaspiro[2.5]octan-7-yl}quinazolin-2-yl)-2,7-dimethylindazol-6-ol]
MYB mRNA; [9]
  AC50: 100 to 1000 nM
MYB mRNA; [10]
  IC50: 100 to 1000 nM
MYB mRNA; [5]
  IC50: 100 to 1000 nM
K562 cells
  Effect of Exemplary Compounds on Cell Viability, K562: B (B represents 100-1000 nM)
HTT mRNA; [11]
  AC50: 1000 to 10000 nM
HTT mRNA; [12]
  IC50: 100 to 1000 nM
HTT mRNA; [8]
  IC50: 100 to 1000 nM
Target C [2]
  IC50: 1 to 10 µM

## Cc1nc(-c2cc3cn(C)nc3c(C)c2O)nc2ccc(N3CCNC4(CC4)C3)cc12 [Compound 793, 5-(6-{4,7-diazaspiro[2.5]octan-7-yl}-4-methylquinazolin-2-yl)-2,7-dimethylindazol-6-ol]
MYB mRNA; [9]
  AC50: 100 to 1000 nM
MYB mRNA; [10]
  IC50: 100 to 1000 nM
MYB mRNA; [5]
  IC50: 100 to 1000 nM
K562 cells
  Effect of Exemplary Compounds on Cell Viability, K562: B (B represents 100-1000 nM)
HTT mRNA; [11]
  AC50: 1000 to 10000 nM
HTT mRNA; [12]
  IC50: 1000 to 10000 nM
HTT mRNA; [8]
  IC50: 1000 to 10000 nM
Target C [2]
  IC50: > 10 µM
